Where two headings read alike, the source gives them in different places.
What was measured:
[1] = tested on: HIV-1 94US3393IN (B-Wild Type); experiment: PBMC multi-round infection assay, clinical isolate 94US3393IN; format: cell-based; conditions: Human immunodeficiency virus 1
Description: (§1) Based on a preliminary screening, conjugates 5 and 8 were evaluated for their ability to inhibit a drug-resistant virus in a peripheral blood mononuclear cell (PBMC) assay. In this assay, FLT, 5, and 8 were tested against B- and C-wild type and A-17 and 4755–5 multidrug-resistant (MDR) clinical isolates of HIV-1, where compounds were incubated with PBMCs for 6 h and then washed off before the addition of the virus and further culture for 7 days.
(§2) For the assessment of compounds against the wild type (WT; R5; clones = 94US3393IN [B subtype] and 98USMSC5016 [C subtype]) and drug-resistant (clones = 4755−5 and A17) HIV-1 clinical isolates, PHA-P stimulated cells from at least two normal donors were pooled, diluted in fresh media, and plated in the interior wells of a 96-well round-bottom microplate. Pooling PBMCs from more than one donor was used to minimize the variability observed between the individual donors, which results from the quantitative and qualitative differences in HIV infection and overall response to the PHA and IL-2 of primary lymphocyte populations. Each plate contained virus/cell control wells (cells + virus), experimental wells (drug + cells + virus), and compound control wells (drug + media, no cells, necessary for MTS monitoring of cytotoxicity). Test drug dilutions were prepared in microtiter tubes, and each concentration was placed in appropriate wells. Following the addition of the drug dilutions to the PBMCs, a predetermined dilution of virus stock was then placed in each test well (final MOI ≅ 0.1). Because HIV-1 is not cytopathic to PBMCs, the same assay plate can be used for both the antiviral efficacy and cytotoxicity measurements. Compounds were incubated with virus and cells in a 96-well format for 6 h. The cells were then washed by removing 75% of the medium (150 μL) and replacing it with 150 μL of fresh (no drug) medium. The plates were then centrifuged (∼200 g) for 10 min, after which 150 μL of the medium was removed, and an additional 150 μL of fresh medium was added to each well and further incubated for 6 days or until peak reverse transcriptase (RT) activity was detected. A microtiter plate-based RT reaction was utilized. Incorporated radioactivity (counts per minute, CPM) was quantified using standard liquid scintillation techniques. Compound IC50 (50%, inhibition of virus replication) was calculated using statistical software and regression analysis. A cellular uptake study was conducted for fluorescence conjugates 23 and 24 using a previously published procedure with minor modifications. All of the experiments were conducted in triplicate.

sperm = experiment: Spermicidal activity (sperm viability and motility); format: cell-based; conditions: abstract; versus N-9 positive control
Description: In this study, several fatty acyl conjugates of nucleosides (5–8, 10–12, 15, and 16) were tested for their spermicidal activities. […] Detailed data analysis is available in the Supplementary Materials (Figure S2).
(§3) Human T lymphoblastoid cells (CCRF-CEM, ATCC No. CCL-119) were grown to 70% confluency in a culture medium. CCRF-CEM cells were incubated with 10 µM of the compounds and mixed with trypan blue (0.1%) to color the dead cells. The percentage of viability was calculated by using a Cellometer Auto T.4 (Nexcelom Bioscience). The cell viability against the vaginal cells (VK-2/E6E7) was conducted according to the previously reported procedure. The effect of conjugates on the sperm viability and mobility was evaluated as described previously.

[2] = tested on: cell-associated HIV-1 IIIB (infected SulT1 cells); experiment: Cell-associated transmission assay (IIIB); format: cell-based; conditions: Human immunodeficiency virus 1, IIIB
Description: (§4) Anti-HIV activities of the compounds were evaluated according to the previously reported procedure. In summary, the HeLa (Human cervical carcinoma: ATCC CCL-2.1) cell line was used to measure the inactivation of both the cell-free virus preparations and virus-infected cell preparations. The cells were plated in culture plates 24 h prior to each experiment. Cell-free viral preparations of HIV-1 strains IIIB (lymphocytotropic strain) and BaL (monocytotropic strain) were used for the cell-free assay. For the cell-associated assay, the SulT1 cells were infected with IIIB virus 5 days prior to the experiment. Cell-free virus and virus-infected cells were mixed with different compounds and diluted to make different concentrations. The mixture was further diluted with the buffer and added to the HeLa cells.

HIV-1 A-17 MDR (B-NNRTI) = experiment: PBMC multi-round infection assay, resistant isolate A-17; format: cell-based
Description: as §1, §2

[3] = tested on: HIV-1 strain IIIB (lymphocytotropic strain); experiment: Single-round infection assay, cell-free X4 virus (lymphocytotropic strain); format: cell-based
Description: as §4

Cytotoxicity assay (MTS) = format: cell-based; conditions: human, HeLa cells (ATCC CCL-2.1)
HIV-1 = experiment: Anti-HIV activity overall (cell-free and cell-associated assays) and antiviral index; format: cell-based; conditions: for antiviral index, times better than AZT: versus AZT; for antiviral index, times better than FLT: versus FLT
Description: Table 2, Table 3 and Table 4 illustrate the anti-HIV-1 activities against the cell-free, cell-associated, and multidrug-resistant virus and sperm inhibiting properties of the selected compounds. In summary, the anti-HIV activity of 5′-substituted derivatives of FLT and AZT (5–18) was dependent on the nature of the 5′-substituent. […] None of the other esters were active against cell-associated virus. […] The difference in the activity of fatty acyl derivatives of FLT compared to each other and FLT may be due to their differences in the rate of uptake and intracellular hydrolysis.
By design, the ester moiety in the conjugates needs to be hydrolyzed to render parent nucleosides and fatty acids to produce anti-HIV activity. The anti-HIV activities of 5′-O-ether substituted FLT and AZT (3 and 4, Scheme 2) with a stable tetradecanyl (myristyl) group were compared with hydrolyzable 5′-O-ester substituted FLT and AZT (6 and 7).
as §4

[4] = tested on: HIV-1 98USMSC5016 (C-Wild Type); experiment: PBMC multi-round infection assay, clinical isolate 98USMSC5016; format: cell-based; conditions: Human immunodeficiency virus 1
Description: as §1, §2

HIV-1 4755-5 MDR (B-MDR) = experiment: PBMC multi-round infection assay, resistant isolate 4755-5; format: cell-based
Description: as §1, §2

[5] = tested on: human vaginal cells (VK-2/E6E7); experiment: Vaginal cell cytotoxicity (MTS assay); format: cell-based; conditions: 6 h incubation; 31-1000 µg/mL
Description: A commercially used spermicidal agent (N-9) and conjugate cytotoxicity was evaluated using immortalized human vaginal cells (VK-2/E6E7). […] Observed cytotoxicity from N-9 could be correlated with the generation of higher levels of cytokines by N-9.
as §3
Figure 2 (A) Dose–response curves of the vaginal cytotoxicity in VK-2 cells (MTS assay) for 5, 6, 8, and N-9 after 6 h incubations. (B) Proinflammatory cytokine (IL-1α) production in the VK-2 cells (ELISA) after a 6 h incubation in the presence of 5, 6, 8, and N-9.

CCRF-CEM cells [6] = experiment: Real-time fluorescence microscopy in live cells; format: cell-based, human; conditions: 10 µM, 1 h
Description: Cells incubated with 10 µM of DMSO, FAM, 23 and 24 for 1 h were used for real time fluorescence microscopy using transmitted light microscopy equipped with a differential-interference contrast method and an Achroplan 40× objective.
The products were purified on a Phenomenex®Gemini 10 µm ODS reversed-phase column (2.1 × 25 cm) with a Hitachi HPLC system using a gradient increment in the acetonitrile (0.1%TFA) concentration from 0 to 100% in 45 min at a constant flow rate of 17 mL/min. The purity of the compounds was confirmed by using an analytical Hitachi analytical HPLC system on a C18 column (Grace Allsphere ODS 2–3 µ, 150 × 4.6 mm) using a gradient system (water:acetonitrile 30:70 v/v) at a constant flow rate of 1 mL/min with a UV detection at 265 nm. The chemical structures of the final products were characterized by nuclear magnetic resonance spectrometry (^1H NMR and ^13C NMR) determined on a Bruker NMR spectrometer (400 MHz, Daltonik, Bremen, Germany) and confirmed by a high-resolution PE Applied Biosystems Mariner API time-of-flight electrospray mass spectrometer (Waltham, MA, USA). Chemical shifts are reported in parts per millions (ppm). For cellular uptake studies, cells were analyzed by flow cytometry (FACSCalibur: Becton Dickinson, San Jose, CA, USA) using the FITC channel and CellQuest software 7.5.3 (Becton Dickinson, San Jose, CA, USA). […]

CCRF-CEM cells [7] = experiment: Cell viability study (trypan blue, Cellometer); format: cell-based, human; conditions: 10 µM, 24 h incubation
Description: Cell viability study was performed to analyze the effect of FAM, 23, and 24 on the live cells. The CCRF-CEM cells were incubated with 10 µM of the compounds and mixed with trypan blue (0.1%) to color the dead cells. The percentage of viability was calculated by using Cellometer Auto T.4 (Nexcelom Bioscience). It was observed that at least 80% of the cells were viable in the presence of the compounds in a 24 h incubation period (Supporting Materials, Figure S1).
as §3

[8] = tested on: HIV-1 strain BaL (monocytotropic strain); experiment: Single-round infection assay, cell-free R5 virus (monocytotropic strain); format: cell-based; conditions: Human immunodeficiency virus 1, BAL
Description: as §4

[9] = tested on: HIV-infected T4 lymphocytes; set-up: method as in PMID 9191015; conditions: read-out: EC50 against HIV-infected T4 lymphocytes; cited from earlier work
[10] = read-out: (CA) EC50, Table 2, cell-associated transmission assay (IIIB)
[11] = Human immunodeficiency virus 1, PBMC
[12] = Human immunodeficiency virus 1, IIIB, read-out: (X4) EC50, Table 2, single-round infection assay
[13] = Table 2, MTS, 50% effective concentration

## CCSCCCCCCCCCCCC(=O)OC[C@H]1O[C@@H](n2cc(C)c(=O)[nH]c2=O)C[C@@H]1F [Compound 8, 3′-fluoro-2′,3′-dideoxy-5′-O-(12-thioethyldodecanoyl)thymidine]
[1]
  IC50: 0.0006 µM
  IC90: 0.0103 µM
sperm
  effect on sperm viability: did not alter vaginal cell and sperm viability
[2]; [10]
  EC50: 2.3 µM
HIV-1 A-17 MDR (B-NNRTI); [11]
  IC50: 0.0136 µM
  IC90: 0.0457 µM
HIV-1 A-17 MDR (B-NNRTI); versus FLT IC50
  fold more potent than FLT against A-17: twice as active
[3]; [12]
  EC50: ≤ 1 µM
[3]; read-out: (X4) EC50, Table 2, single-round infection assay
  EC50: 1 µM
Cytotoxicity assay (MTS); [13]
  EC50: > 2000 µM
HIV-1
  anti-HIV activity (in words): significant anti-HIV activity at noncytotoxic concentrations
  antiviral index, times better than AZT: > 30 times
  antiviral index, times better than FLT: > 4 times
[4]
  IC50: 0.001 µM
  IC90: 0.0082 µM
HIV-1 4755-5 MDR (B-MDR); [11]
  IC50: 0.112 µM
  IC90: 0.662 µM
HIV-1 4755-5 MDR (B-MDR); versus FLT IC50
  fold more potent than FLT against 4755-5: equally active
[5]
  cytotoxicity to vaginal cells: did not show significant cytotoxic effects

## 5(6)-carboxyfluorescein [FAM]
CCRF-CEM cells [6]
  cell fluorescence (real time fluorescence microscopy): no significant fluorescence
CCRF-CEM cells [7]
  viable cells: at least 80%

## CCCCCCCCCCCCCC(=O)OC[C@H]1O[C@@H](n2cc(C)c(=O)[nH]c2=O)C[C@@H]1F [Compound 6, 5′-O-(myristoyl)-3′-fluoro-2′,3′-dideoxythymidine]
sperm
  effect on sperm viability: did not alter vaginal cell and sperm viability
[2]; [10]
  EC50: 6.4 µM
[2]; read-out: (CA) EC50, Table 3, cell-to-cell transmission assay (IIIB)
  EC50: 6.4 µM
[3]; [12]
  EC50: ≤ 1 µM
[3]; Human immunodeficiency virus 1, IIIB, read-out: (X4) EC50, Table 3, viral entry inhibition assay
  EC50: 0.7 µM
[8]; read-out: (R5) EC50, Table 2, single-round infection assay
  EC50: ≤ 1 µM
[8]; read-out: (R5) EC50, Table 3, viral entry inhibition assay
  EC50: 1.1 µM
Cytotoxicity assay (MTS); [13]
  EC50: 606 µM
Cytotoxicity assay (MTS); Table 3, conjugates vs physical mixtures
  EC50: 606 µM
HIV-1
  anti-HIV activity (in words): significant anti-HIV activity at noncytotoxic concentrations
  antiviral index, times better than AZT: > 30 times
  antiviral index, times better than FLT: > 4 times
[5]
  cytotoxicity to vaginal cells: did not show significant cytotoxic effects

## CCSCCCCCCCCCCCC(=O)O [12-thioethyldodecanoic acid]
[9]
  EC50: 9.4 µM

Source: PMC9143043, “Synthesis and Biological Evaluation of 5′-O-Fatty Acyl Ester Derivatives of 3′-Fluoro-2′,3′-dideoxythymidine as Potential Anti-HIV Microbicides” (Molecules, 2022)
